Assay results as given in patent publication US20230295571A1, “COMPOSITIONS AND METHODS FOR STEM CELL CHONDROGENESIS” (Washington University, priority 2020, published 2023).

Tests used:
Format in all cases: cell-based, human
[1] = tested on: hiPSC chondrogenic pellets; assay: Biochemical analysis of cartilaginous matrix production (GAG/DNA) in hiPSC chondrogenic pellets; details: 1 μM inhibitor + TGF-β3 during pellet culture, d28/d42, vs TGF-β3 or other regimens
Experimental: Chondrogenic differentiation. Cells dissociated at the Cp stage were resuspended at 5×10^5 cells per mL in chondrogenic medium consisting of DMEM/F-12, 1% FBS, 1% ITS+, 55 μM β-mertcaptoethanol, 100 nM dexamethasone (DEX; Sigma-Aldrich, #D4902), 1% NEAA (Gibco, #11140050), 1% P/S, 10 ng ml^−1 human transforming growth factor-beta 3 (TGF-β3; R&D Systems, #243-B3-010), 50 μg ml^−1 L-ascorbic acid 2-phosphate (ascorbate; Sigma-Aldrich, #A8960), and 40 μg ml^−1 L-Proline (proline; Sigma-Aldrich, #P5607). Cells were then centrifuged for 5 min at 300×g to form a pellet. Chondrogenic pellets were cultured at 37° C. for up to the timepoints required for various experiments.
WNT-C59 and ML329 treatment for WNT and MITF inhibition. For WNT-C59 treatment for WNT inhibition during chondrogenesis, pellets were treated with either 10 ng ml^−1 TGF-β3 (control group) or a combination of 10 ng ml^−1 TGF-β3 and 1 μM WNT-C59 in a chondrogenic medium from d0 to d42 as appropriate. […]
Biochemical analysis of cartilaginous matrix production. […] GAG content, as calculated based on the standard curve, was normalized to double-stranded DNA content to obtain the GAG/DNA ratio.

[2] = tested on: WNT2B, WNT3A, WNT4, WNT5B, WNT7B; assay: Western blots of WNT proteins in d28 pellets
Experimental: Western blots. To examine the effect of WNT-C59 on WNT inhibition in the pellets at protein levels, Western blot analysis was performed on d28 pellets with or without WNT-C59 treatments. Six to eight pellets per experimental group were pooled and digested with 0.04% Type II collagenase solution in DMEM/F12 for 1 h. Cells were washed once with PBS and lysed in RIPA buffer (Cell Signaling Technology, #9806S) with protease inhibitor (ThermoFisher, #87786) and phosphatase inhibitor (Santa Cruz Biotechnology, #sc-45044). Protein concentration was measured using the BCA Assay (Pierce). Ten micrograms of proteins for each well were separated on 10% sodium dodecyl sulfate-polyacrylamide gel electrophoresis gels with prestained molecular weight markers (Bio-Rad, 161-0374) and transferred to a polyvinylidene fluoride (PVDF) membrane. The PVDF membrane blots were incubated overnight at 4° C. with the following primary antibodies: anti-WNT2B (1:350, Abcam, ab178418), anti-WNT3A (1:1000, Abcam, ab81614), anti-WNT4 (1:500, Abcam, ab91226), anti-WNTSB (1:500, Abcam, ab93134), anti-WNT7B (1:2000, Abcam, ab155313) and anti-GAPDH (1:30000, Proteintech 60004-1-Ig) for loading control, respectively. […] Immunoblots were imaged and analyzed using the iBright FL1000 Imaging System (Thermo Fisher). […]

[3] = tested on: CD146/CD166+ cells at the Cp stage; assay: FACS for progenitors at the Cp stage; details: with BMP4, 1 μM WNT-C59 or 100 ng/ml WNT3A
Experimental: WNT ligands treatment during chondrogenesis. For WNT ligands treatment during chondrogenesis, pellets were treated with either 10 ng ml^−1 TGF-β3 (control group) or a combination of 10 ng ml^−1 TGF-β3 and 100 ng ml^−1 individual WNT ligand (WNT2B, WNT3A, WNT4, WNT5B, or WNT7B, all from R&D system) in chondrogenic medium from d0 to d42 as appropriate. For WNT ligands treatment during the Cp stage, cells were supplemented with either 20 ng ml^−1 BMP4 (R&D Systems, #314-BP-010) alone (control group), a combination of 20 ng ml^−1 BMP4 and 1 μM WNT-059, or a combination of 20 ng ml^−1 BMP4 and 100 ng ml^−1 WNT3A (R&D Systems, #5036-WN-010) in mesodermal differentiation medium from d7 to d12.
FACS for progenitors. […] Data were analyzed using FlowJo software (version 10.5.3).

SMILES: Cc1cc(-c2ccc(CC(=O)Nc3ccc(-c4cccnc4)cc3)cc2)ccn1 [WNT-C59]
- GAG/DNA ratio [1]: significantly increased
- WNT5B protein [2]: only moderately inhibited
- protein levels of WNT2B, WNT3A, WNT4, and WNT7B [2]: decreased
- percentage of CD146/CD166+ cells [3]: largely decreased
